{"source": "paper PMC4349623", "about": "(BMC Biochemistry, 2015)", "key": {"CaM": {"test_system": "CaM", "assay": "Stern-Volmer quenching of CaM-bound ANS by acrylamide", "source_text": "Given that steady state fluorescence cannot differentiate the intensity contribution from individual ANS molecules, we utilized time-correlated single-photon counting (TCSPC) spectrometry to measure the ANS fluorescence decay. […] The data was best fit with a three-exponential-decay function. The shortest lifetime (τ3 = ~0.3 ns) was assigned to that of free ANS molecules, which was confirmed by using an ANS solution alone. Note that this lifetime reaches the detection limitation of our instrument and therefore, it cannot be determined precisely. […] The fitting also provided the fractional (or relative amplitude), fs, which weights the “amount” of the emitting species, and the normalized pre-exponential value, Bs, which provides the relative concentration of each species. […] In other words, the long lifetime component of ANS is one order less quenched by acrylamide.\nFor a quenching that is purely by collision, the steady-state and lifetime Stern-Volmer quenching equation can be expressed as4 <τo>/<τ>=1+KsvQandKsv=kqxτ0 where τ and τo are the lifetime in the presence and absence of the quencher, and kq is the quenching rate constant."}, "[1]": {"assay": "Far-UV circular dichroism", "details": "Ca^2+-bound, 0.1 mg/ml protein, 10 mM Tris, pH 7.5"}, "[2]": {"assay": "ANS steady-state fluorescence (hydrophobicity probe)", "type": "biochemical", "details": "for ANS fold enhancement: pH 7.5, 0.1 M NaCl, 2 mM Ca^2+", "source_text": "It is well known that the exposure of the hydrophobic patches of CaM is essential for target protein recognition. Such hydrophobic exposure can be photometrically monitored by its interaction with extrinsic 1-anilinonaphthalene 8-sulfonate (ANS) and 2-p-toluidinyl-naphthalene-6-sulfonate (TNS) molecules. These two fluorophores have been widely used as a probe for measuring hydrophobicity. ANS is a fluorescent dye which emits very weak fluorescence in water due to its excited charge transfer (CT) state that is quenched easily by water molecules. […] ANS fluorescence increases dramatically in a hydrophobic environment or when the rotational motion of its phenylamino group is restricted. […] The fluorescence increased when Ca^2+ was included in the mixture.\nANS fluorescence was excited at 350 nm.\nAbsorption measurements were carried out using a UV-1800 double-beam spectrometer (Shimadzu, Kyoto, Japan). The fluorescence spectra were recorded on a FluoroMax-3P (Horiba Scientific) equipped with a temperature control unit. For intrinsic Trp fluorescence, the excitation wavelength of 295 nm was chosen. […] The samples containing ANS or dansyl-labeled proteins were excited at 350 and 370 nm, respectively. The slit widths of 2 and 5 nm were typically chosen for excitation and emission, respectively, to eliminate photobleaching."}, "[3]": {"assay": "ANS binding by isothermal titration calorimetry", "details": "30 mM Hepes, 25°C", "source_text": "The heat evolved is proportional to the amount of the ANS/Ca^2+-CaM complex formation. […] We fit the data with “one set of sites” to obtain the apparent association binding constant (Kapp) of 2.10 ± 0.11 × 10^3 M^−1 for Ca^2+-CaM (Table 1), consistent with a previous report. […] Based on our studies, the middle point from the ITC thermogram (and the inflection point in the corresponding derived binding isotherm) indicates approximately 4–6 bound-ANS molecules in Ca^2+-CaM. Therefore, Kapp is proportional to the actual number of protein-bound ANS molecules in the experimental condition. In the text below, we will discuss Kapp as the ANS binding affinity for simplicity.\nThe ITC data were fit with a “one set of sites” model as described in the Experimental section.\nThe ITC experiments were carried out on a VP-ITC (GE, Pittsburgh, PA). Protein samples were buffer-exchanged to the desired buffer. Peptide concentration was prepared by adding buffer to the peptide powder as measured by weight. All samples were degassed 15–30 min before loading. To avoid buffer mismatch, the syringe and sample cells were rinsed with the desired buffer prior to sample loading. A typical titration was performed by sequential injections every 120–180 sec of 5–10 μL solution at 25°C. The ITC raw data was corrected for the heat of titrant dilution determined by an experiment conducted in identical conditions except that no protein was contained in the sample cell. The corrected data, after integration of heat evolved, was fitted with Origin software provided by the manufacturer to determine Ka and the observed or apparent ΔH (ΔHapp)."}, "[4]": {"biological_target": "CaM(1TnC): domain 1 of TnC and domains 2, 3 and 4 of CaM", "assay": "ITC; 1 mM Orai-CMBD titrated into 30 uM CaM or chimera; 10 mM Tris, pH 7.5, 0.1 M NaCl, 2 mM Ca2+, 25°C; 'one set of sites' or two sequential binding sites model"}, "dansyl-labeled CaM(1TnC)": {"biological_target": "dansyl-labeled CaM(1TnC)", "assay": "stopped-flow fluorescence (dissociation chase); 5 uM dansyl-labeled CaM or chimera with 15 uM Orai-CMBD, 2 mM Ca2+, mixed with 75 uM unlabeled CaM, 2 mM Ca2+; dansyl fluorescence decay (excitation 370 nm), single exponential fit"}, "[5]": {"details": "ref [13]; cited from earlier work", "source_text": "It is well known that the exposure of the hydrophobic patches of CaM is essential for target protein recognition. Such hydrophobic exposure can be photometrically monitored by its interaction with extrinsic 1-anilinonaphthalene 8-sulfonate (ANS) and 2-p-toluidinyl-naphthalene-6-sulfonate (TNS) molecules. These two fluorophores have been widely used as a probe for measuring hydrophobicity. ANS is a fluorescent dye which emits very weak fluorescence in water due to its excited charge transfer (CT) state that is quenched easily by water molecules."}, "[6]": {"details": "no reference given; cited from earlier work", "source_text": "(§1) Given the structural similarities and functional differences of CaM an ..."}, "Ca^2+-ATPase": {"test_system": "Ca^2+-ATPase", "details": "ref [13]; cited from earlier work", "source_text": "as §1"}, "nNOS": {"test_system": "nNOS", "details": "ref [12]; cited from earlier work", "source_text": "as §1"}}}
{"compound": "O=S(=O)(O)c1cccc2cccc(Nc3ccccc3)c12", "note": "[ANS, 1-anilinonaphthalene 8-sulfonate]", "values": [{"measurement": "kq (quenching rate constant), short lifetime", "setting": "CaM; τ1 ANS", "value": "2.2e+08", "unit": "M⁻¹ s⁻¹"}, {"measurement": "kq (quenching rate constant), τ2", "setting": "CaM; τ2 ANS", "value": "1.9e+07", "unit": "M⁻¹ s⁻¹"}]}
{"compound": "Calmodulin [CaM]", "values": [{"measurement": "ellipticity ratio θ220/θ209", "setting": "[1]", "value": "~ 1"}, {"measurement": "increase of ANS fluorescence intensity on Orai-CMBD binding", "setting": "[2]; Ca^2+-bound protein", "value": "~ 10%"}, {"measurement": "ANS fluorescence change", "setting": "[2]; absence of Ca^2+", "value": "exhibited no change"}, {"measurement": "ANS enhancement", "setting": "[2]; in the absence of salt, 30 mM Hepes, pH 7.5, 2 mM Ca^2+, spectra integration vs apo protein, at least three repeats, three protein batches", "value": "3.01 ± 0.12", "unit": "fold"}, {"measurement": "ANS fold enhancement", "setting": "[2]; in the presence of salt and Orai-CMBD, 30 mM Hepes, vs apo protein", "value": "3.87 ± 0.10", "unit": "fold"}, {"measurement": "ANS fold enhancement", "setting": "[2]; in the presence of salt, 30 mM Hepes, spectra integration vs apo protein", "value": "3.49 ± 0.07", "unit": "fold"}, {"measurement": "K app", "setting": "[3]; in the absence of salt, pH 7.5, 2 mM Ca^2+, apparent association constant, one set of sites", "value": "2.10 ± 0.11 × 10^3 M^−1"}, {"measurement": "K app", "setting": "[3]; in the presence of salt and Orai-CMBD, pH 7.5, 0.1 M NaCl, 2 mM Ca^2+", "value": "3.43 ± 0.65 × 10^3 M^−1"}, {"measurement": "K app", "setting": "[3]; in the presence of salt, pH 7.5, 0.1 M NaCl, 2 mM Ca^2+, apparent association constant", "value": "3.69 ± 0.08 × 10^3 M^−1"}]}
{"compound": "Orai-CMBD, 24-residue peptide corresponding to the CaM-binding domain of Orai1 (residues 68-91)", "values": [{"measurement": "Ka1 (first of two sequential sites)", "setting": "[4]", "value": 757000, "unit": "M⁻¹"}, {"measurement": "Ka2 (second of two sequential sites)", "setting": "[4]", "value": 17000, "unit": "M⁻¹"}, {"measurement": "dH1 (first of two sequential sites)", "setting": "[4]", "value": -4.99, "unit": "kcal/mol"}, {"measurement": "dH2 (second of two sequential sites)", "setting": "[4]", "value": -3.33, "unit": "kcal/mol"}, {"measurement": "stoichiometry N", "setting": "[4]", "value": 2}, {"measurement": "koff", "setting": "dansyl-labeled CaM(1TnC)", "value": 2.44, "unit": "s⁻¹"}]}
{"compound": "Troponin C [TnC]", "values": [{"measurement": "interaction with ANS", "setting": "[5]", "value": "no interaction between TnC and ANS"}, {"measurement": "Ca^2+ affinity of EF4 relative to that of CaM", "setting": "[6]", "value": "one order higher"}, {"measurement": "affinity for Ca^2+-ATPase", "setting": "Ca^2+-ATPase", "value": "very low affinity"}, {"measurement": "binding to / activation of nNOS", "setting": "nNOS", "value": "can neither bind to nor activate nNOS"}]}
